Results on 27 compounds are retold here after patent publication US12371426B2, “Pyridazine derivatives as SMARCA2/4 degraders” (Aurigene Discovery Technologies Limited, priority 2018, dated 2025).

The structures appear in SMILES notation.

Chain of SMARCA2 (P51531 whole entry): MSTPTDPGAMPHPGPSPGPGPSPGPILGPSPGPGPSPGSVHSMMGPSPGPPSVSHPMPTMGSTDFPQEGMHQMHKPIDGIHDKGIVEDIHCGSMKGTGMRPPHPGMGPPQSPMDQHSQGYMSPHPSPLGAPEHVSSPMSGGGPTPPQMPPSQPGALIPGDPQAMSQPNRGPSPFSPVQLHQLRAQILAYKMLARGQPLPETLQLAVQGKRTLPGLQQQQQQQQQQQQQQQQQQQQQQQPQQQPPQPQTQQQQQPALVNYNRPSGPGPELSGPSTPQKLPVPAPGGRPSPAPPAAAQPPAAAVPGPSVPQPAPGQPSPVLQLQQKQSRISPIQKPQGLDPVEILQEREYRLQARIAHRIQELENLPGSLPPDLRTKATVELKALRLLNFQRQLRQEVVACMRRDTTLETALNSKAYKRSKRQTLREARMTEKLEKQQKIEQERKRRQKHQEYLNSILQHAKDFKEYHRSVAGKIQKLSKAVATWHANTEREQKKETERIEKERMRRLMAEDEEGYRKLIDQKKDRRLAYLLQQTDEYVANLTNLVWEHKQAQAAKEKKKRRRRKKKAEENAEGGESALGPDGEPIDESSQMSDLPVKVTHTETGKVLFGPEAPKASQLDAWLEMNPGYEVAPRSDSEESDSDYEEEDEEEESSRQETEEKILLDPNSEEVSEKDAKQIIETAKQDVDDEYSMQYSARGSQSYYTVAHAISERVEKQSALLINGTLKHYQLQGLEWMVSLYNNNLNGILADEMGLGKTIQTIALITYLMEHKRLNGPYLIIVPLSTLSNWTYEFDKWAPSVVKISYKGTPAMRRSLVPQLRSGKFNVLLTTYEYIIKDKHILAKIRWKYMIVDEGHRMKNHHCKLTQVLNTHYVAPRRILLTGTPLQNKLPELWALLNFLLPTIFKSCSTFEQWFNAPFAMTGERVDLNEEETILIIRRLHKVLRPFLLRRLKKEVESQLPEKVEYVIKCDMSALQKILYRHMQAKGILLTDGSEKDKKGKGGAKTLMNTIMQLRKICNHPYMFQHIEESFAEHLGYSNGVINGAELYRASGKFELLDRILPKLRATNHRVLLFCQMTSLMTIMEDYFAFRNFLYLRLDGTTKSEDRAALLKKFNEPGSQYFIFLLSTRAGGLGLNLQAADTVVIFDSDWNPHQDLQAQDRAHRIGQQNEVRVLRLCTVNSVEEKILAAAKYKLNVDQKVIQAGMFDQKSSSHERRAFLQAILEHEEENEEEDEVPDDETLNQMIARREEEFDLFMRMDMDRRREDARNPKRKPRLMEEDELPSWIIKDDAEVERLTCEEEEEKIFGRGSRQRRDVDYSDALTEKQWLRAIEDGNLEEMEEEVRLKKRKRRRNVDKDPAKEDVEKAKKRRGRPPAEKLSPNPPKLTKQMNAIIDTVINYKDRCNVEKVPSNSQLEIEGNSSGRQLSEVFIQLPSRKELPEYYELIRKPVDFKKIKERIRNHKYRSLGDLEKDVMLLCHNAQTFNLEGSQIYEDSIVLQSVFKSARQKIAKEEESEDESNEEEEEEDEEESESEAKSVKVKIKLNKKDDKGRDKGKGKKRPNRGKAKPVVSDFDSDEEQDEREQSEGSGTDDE

The test system of the first test is NCI-H929 cells. In words: Anti proliferative activity in NCI-H929 cell line by Cell Titer Glo assay. The test is classed as cell-based. Conditions: Homo sapiens, 72 h, 3 days compound incubation, CellTiter Glo, read-out: Anti-proliferative activity IC50 group (NCI-H929 cells). On the procedure:
Determination of Anti Proliferative Activity of Compounds in NCI-H929 and NCI-H838 Cell Lines by Cell Titer Glo® (promega) assay:
NCI-H929 (ATCC CRL-9068) or NCI-H838 (ATCC CRL-5844) cells were seeded in 96 well plate flat black clear bottom plates (Corning, Cat. No 3904) using complete RPMI-1640 media. Next day, compounds listed in the present invention were added to cells from 10 mM stocks made in DMSO (Sigma Cat no. D2650). Each concentration of compound was tested in triplicate with DMSO concentration at a final percentage not exceeding 0.3 in the cells. After the compound incubation (3 days for H929 and 8 days for H838) assay was terminated using 50 μl of CellTiter Glo® reagent (Promega, Cat. no G7572). CellTiter Glo® Luminescent reagent determines the number of viable cells based on quantitation of ATP present which is an indicator of cell number and metabolic activity. Luminescence readings were taken in Victor-3 instrument. Percent inhibition of proliferation was calculated using formula, % inhibition=100−(luminescence value of test/luminescence value of DMSO control)*100. DMSO control (0%)=Cells in complete media with DMSO; blank=Media alone containing DMSO. IC50 was calculated using graph pad prism software.
Herein group “A” refers to IC50 value lower than 1 μM, “B” refers to IC50 value between 1-10 μM (both inclusive) and “C” refers to IC50 value higher than 10 μM or less than 50% activity at 10 μM.
For `Cc1ncsc1-c1ccc([C@H](C)NC(=O)[C@@H]2C[C@@H](O)CN2C(=O)[C@@H](NC(=O)CCCCC(=O)N2CCN(c3cc(-c4ccccc4O)nnc3N)CC2)C(C)(C)C)cc1` [Compound 110], the IC50 is < 1 µM. Still for that read-out and setting: for `Cc1ncsc1-c1ccc(CNC(=O)[C@@H]2C[C@@H](O)CN2C(=O)[C@@H](NC(=O)COCC(=O)N2CCN(c3cc(-c4ccccc4O)nnc3N)CC2)C(C)(C)C)cc1` [Compound 31] the value was > 10 µM; for `Cc1ncsc1-c1ccc(CNC(=O)[C@@H]2C[C@@H](O)CN2C(=O)[C@@H](NC(=O)COCCNC(=O)C2CCN(c3cc(-c4ccccc4O)nnc3N)CC2)C(C)(C)C)cc1` [Compound 1, 1-(3-amino-6-(2-hydroxyphenyl)pyridazin-4-yl)-N-(2-(2-(((S)-1-((2S,4R)-4-hydroxy-2-((4-(4-methylthiazol-5-yl)benzyl)carbamoyl)pyrrolidin-1-yl)-3,3-dimethyl-1-oxobutan-2-yl)amino)-2-oxoethoxy)ethyl)piperidine-4-carboxamide], > 10 µM; for `Cc1ncsc1-c1ccc([C@H](C)NC(=O)[C@@H]2C[C@@H](O)CN2C(=O)[C@@H](NC(=O)CN2CCN(c3cc(-c4ccccc4)nnc3N)CC2)C(C)(C)C)cc1` [Compound 46], > 10 µM. On to `Nc1nnc(-c2ccccc2O)cc1N1CCN(C(=O)COCC(=O)Nc2cccc3c2CN(C2CCC(=O)NC2=O)C3=O)CC1` (stereo not drawn) [Compound 28], for which the IC50 was > 10 µM. As for `Cc1ncsc1-c1ccc(CNC(=O)[C@@H]2C[C@H](O)CN2C(=O)[C@@H](NC(=O)CN2CCN(c3cc(-c4ccccc4O)nnc3N)CC2)C(C)(C)C)cc1` [Compound 105], the IC50 was 1 to 10 µM. On to `Cc1ncsc1-c1ccc([C@H](C)NC(=O)[C@@H]2C[C@@H](O)CN2C(=O)[C@@H](NC(=O)CCCCCNC(=O)C2CCN(c3cc(-c4ccccc4O)nnc3N)CC2)C(C)(C)C)cc1` [Compound 113], for which the IC50 lay within 1 to 10 µM. Regarding `Nc1nnc(-c2ccccc2O)cc1N1CCC(NC(=O)CCCCCCC(=O)Nc2cccc3c2CN(C2CCC(=O)NC2=O)C3=O)CC1` (stereo not drawn) [Compound 17], the IC50 is > 10 µM.

For `Cc1ncsc1-c1ccc([C@H](C)NC(=O)[C@@H]2C[C@@H](O)CN2C(=O)[C@@H](NC(=O)CCCCCCCC(=O)N2CCN(c3cc(-c4ccccc4O)nnc3N)CC2)C(C)(C)C)cc1` [Compound 111], the IC50 was < 1 µM.

Consider `Cc1ncsc1-c1ccc([C@H](C)NC(=O)[C@@H]2C[C@@H](O)CN2C(=O)[C@@H](NC(=O)CN2CCN(c3cc(-c4ccccc4O)nnc3O)CC2)C(C)(C)C)cc1` [Compound 54, (2S,4R)-4-hydroxy-1-((S)-2-(2-(4-(3-hydroxy-6-(2-hydroxyphenyl)pyridazin-4-yl)piperazin-1-yl)acetamido)-3,3-dimethylbutanoyl)-N—((S)-1-(4-(4-methylthiazol-5-yl)phenyl)ethyl)pyrrolidine-2-carboxamide], for which the IC50 was > 10 µM. On to `Nc1nnc(-c2ccccc2O)cc1N1CCC(NC(=O)COCC(=O)Nc2cccc3c2C(=O)N(C2CCC(=O)NC2=O)C3=O)CC1` (stereo not drawn) [Compound 16], for which the IC50 is > 10 µM. Regarding `Nc1nnc(-c2ccccc2O)cc1N1CCN(C(=O)COCC(=O)Nc2cccc3c2C(=O)N(C2CCC(=O)NC2=O)C3=O)CC1` (stereo not drawn) [Compound 29], the IC50 is > 10 µM. As to `Nc1nnc(-c2ccccc2O)cc1N1CCC(NC(=O)CCCCCCC(=O)Nc2cccc3c2C(=O)N(C2CCC(=O)NC2=O)C3=O)CC1` (stereo not drawn) [Compound 19], the half-maximal inhibitory concentration (IC50) is > 10 µM. Still for that read-out and setting: with `Cc1ncsc1-c1ccc([C@H](C)NC(=O)[C@@H]2C[C@@H](O)CN2C(=O)[C@@H](NC(=O)CN2CCN(c3ccnnc3N)CC2)C(C)(C)C)cc1` [Compound 67, (2S,4R)-1-((S)-2-(2-(4-(3-aminopyridazin-4-yl)piperazin-1-yl)acetamido)-3,3-dimethylbutanoyl)-4-hydroxy-N—((S)-1-(4-(4-methylthiazol-5-yl)phenyl)ethyl)pyrrolidine-2-carboxamide] the figure was > 10 µM; with `COc1ccccc1-c1cc(N2CCN(CC(=O)N[C@H](C(=O)N3C[C@H](O)C[C@H]3C(=O)N[C@@H](C)c3ccc(-c4scnc4C)cc3)C(C)(C)C)CC2)c(N)nn1` [Compound 45], > 10 µM; with `COC(=O)c1cc(N2CCN(CC(=O)N[C@H](C(=O)N3C[C@H](O)C[C@H]3C(=O)N[C@@H](C)c3ccc(-c4scnc4C)cc3)C(C)(C)C)CC2)c(N)nn1` [Compound 72, methyl 6-amino-5-(4-(2-(((S)-1-((2S,4R)-4-hydroxy-2-(((S)-1-(4-(4-methylthiazol-5-yl)phenyl)ethyl)carbamoyl)pyrrolidin-1-yl)-3,3-dimethyl-1-oxobutan-2-yl)amino)-2-oxoethyl)piperazin-1-yl)pyridazine-3-carboxylate], > 10 µM. In the case of `Nc1nnc(-c2ccccc2O)cc1N1CCC(C(=O)NCCOCC(=O)Nc2cccc3c2C(=O)N(C2CCC(=O)NC2=O)C3=O)CC1` (stereo not drawn) [Compound 6], the IC50 was > 10 µM. Turning to `Cc1ncsc1-c1ccc([C@H](C)NC(=O)[C@@H]2C[C@@H](O)CN2C(=O)[C@@H](NC(=O)CCCCCC(=O)N2CCN(c3cc(-c4ccccc4O)nnc3N)CC2)C(C)(C)C)cc1` [Compound 112], the IC50 is < 1 µM.

As for `Nc1nnc(-c2ccccc2O)cc1N1CCC(NC(=O)CCCCCCCCCC(=O)Nc2cccc3c2CN(C2CCC(=O)NC2=O)C3=O)CC1` (stereo not drawn) [Compound 18], the IC50 is > 10 µM. `Cc1ncsc1-c1ccc(CNC(=O)[C@@H]2C[C@@H](O)CN2C(=O)[C@@H](NC(=O)CCCCCCC(=O)NC2CCN(c3cc(-c4ccccc4O)nnc3N)CC2)C(C)(C)C)cc1` [Compound 21]: the concentration for half-maximal inhibition (IC50) is > 10 µM.

In the case of `Nc1nnc(-c2ccccc2O)cc1N1CCC(C(=O)NCCOCCOCCOCC(=O)Nc2cccc3c2CN(C2CCC(=O)NC2=O)C3=O)CC1` (stereo not drawn) [Compound 12], the IC50 was > 10 µM. Still for that read-out and setting: for `Cc1ncsc1-c1ccc(CNC(=O)[C@@H]2C[C@@H](O)CN2C(=O)[C@@H](NC(=O)CCCC(=O)N2CCN(c3cc(-c4ccccc4O)nnc3N)CC2)C(C)(C)C)cc1` [Compound 33] the value was > 10 µM; for `Cc1ncsc1-c1ccc(CNC(=O)[C@@H]2C[C@@H](O)CN2C(=O)[C@@H](NC(=O)COCCOCCOCCOCCNC(=O)C2CCN(c3cc(-c4ccccc4O)nnc3N)CC2)C(C)(C)C)cc1` [Compound 3], > 10 µM.

The target of a further test is SMARCA2 (Homo sapiens, UniProt P51531). As to the kind of experiment: SMARCA2 degradation in NCI-H838 cells by Western blot. The test is classed as cell-based. On the set-up: endogenous in cells; host or cells: NCI-H838 (ATCC CRL-5844). Conditions: 16 hours. Here is the method: Determination of SMARCA2 Degradation in NCI-1H838 Cells by Western Blot:
NCI-1H838 (ATCC CRL-5844) was plated in 6 well plates using complete RPMI-1640 media. Next day, compounds of present invention were added to cells from 10 mM stocks made in DMSO (Sigma Cat no. D2650). Each concentration of compound was tested with DMSO concentration not exceeding a final percentage of 0.3 in the cells. Cells were incubated with the compound for 16 hours followed by harvesting with 1× RIPA lysis buffer (Thermo Fischer, catalogue number #89900) containing protease inhibitor cocktail (Sigma catalogue number #P-8340). Equal amount of protein was loaded on SIDS PAGE gel for electrophoresis. Western blot was carried out for detection of SMARCA2 with antibody (Cell signaling technologies, catalogue number #11966). Beta Actin (Santa Cruz, catalogue number #69879) was used as loading control. Percentage of SMARCA2 degradation was calculated using formula % degradation=100−(normalized band intensity in treated sample/normalized band intensity in DMSO sample)*100”.
Selected compounds of the present invention were screened in the above mentioned assay procedures for determination of % SMARCA2 degradation at 100 nM and the results are summarized in below table 31.
As for `Cc1ncsc1-c1ccc([C@H](C)NC(=O)[C@@H]2C[C@@H](O)CN2C(=O)[C@@H](NC(=O)CN2CCN(c3cc(-c4ccccc4O)nnc3N)CC2)C(C)(C)C)cc1.Cl` [Compound 65, (2S,4R)-1-((S)-2-(2-(4-(3-amino-6-(2-hydroxyphenyl)pyridazin-4-yl)piperazin-1-yl)acetamido)-3,3-dimethylbutanoyl)-4-hydroxy-N—((S)-1-(4-(4-methylthiazol-5-yl)phenyl)ethyl)pyrrolidine-2-carboxamide hydrochloride], the “SMARCA2 @ 100 nM (% SMARCA2 degradation)” value is listed as 94%.

With `Cc1ncsc1-c1ccc([C@H](C)NC(=O)[C@@H]2C[C@@H](O)CN2C(=O)[C@@H](NC(=O)CN2CCN(c3cc(C(N)=O)nnc3N)CC2)C(C)(C)C)cc1` [Compound 74, 6-amino-5-(4-(2-(((S)-1-((2S,4R)-4-hydroxy-2-(((S)-1-(4-(4-methylthiazol-5-yl)phenyl)ethyl)carbamoyl)pyrrolidin-1-yl)-3,3-dimethyl-1-oxobutan-2-yl)amino)-2-oxoethyl)piperazin-1-yl)pyridazine-3-carboxamide], the “SMARCA2 @ 100 nM (% SMARCA2 degradation)” value was determined as 21%. On to `Cc1ncsc1-c1ccc(C(NC(=O)[C@@H]2C[C@@H](O)CN2C(=O)[C@@H](NC(=O)CC2CCN(c3cc(-c4cccc(F)c4O)nnc3N)CC2)C(C)(C)C)C(F)(F)F)cc1` (single isomer, unassigned) [Compound 77], for which the “SMARCA2 @ 100 nM (% SMARCA2 degradation)” value amounted to 9%. With `CNC(=O)c1cc(N2CCN(CC(=O)N[C@H](C(=O)N3C[C@H](O)C[C@H]3C(=O)N[C@@H](C)c3ccc(-c4scnc4C)cc3)C(C)(C)C)CC2)c(N)nn1` [Compound 75, 6-amino-5-(4-(2-(((S)-1-((2S,4R)-4-hydroxy-2-(((S)-1-(4-(4-methylthiazol-5-yl)phenyl)ethyl)carbamoyl)pyrrolidin-1-yl)-3,3-dimethyl-1-oxobutan-2-yl)amino)-2-oxoethyl)piperazin-1-yl)-N-methylpyridazine-3-carboxamide], the “SMARCA2 @ 100 nM (% SMARCA2 degradation)” value came to 12%.
